For 29 molecules, Ki results are on record in BindingDB's records for doi:10.1038/sj.bjp.0701367 (Kyoto University, 1997).

In one assay the target is T1, Thromboxane A2 receptor (Mus musculus, UniProt P30987).
T1 sequence (P30987 whole entry): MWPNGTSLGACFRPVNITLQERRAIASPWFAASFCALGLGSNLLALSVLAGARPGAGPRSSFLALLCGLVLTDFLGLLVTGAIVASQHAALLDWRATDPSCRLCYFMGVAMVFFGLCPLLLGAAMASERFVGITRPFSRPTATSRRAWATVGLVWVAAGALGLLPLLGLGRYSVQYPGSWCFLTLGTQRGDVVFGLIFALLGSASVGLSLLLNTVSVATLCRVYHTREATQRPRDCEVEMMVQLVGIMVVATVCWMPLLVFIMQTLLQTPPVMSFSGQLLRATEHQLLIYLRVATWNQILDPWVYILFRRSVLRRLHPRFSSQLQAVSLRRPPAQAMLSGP

The target in assay [1] is Prostaglandin E2 receptor EP2 subtype (Mus musculus, UniProt Q62053).
The next assay deals with Prostacyclin receptor (Mus musculus, UniProt P43252).
Assay [2] concerns the target T2, Prostaglandin E2 receptor EP3 subtype (Mus musculus, UniProt P30557).
T2 sequence (P30557 whole entry): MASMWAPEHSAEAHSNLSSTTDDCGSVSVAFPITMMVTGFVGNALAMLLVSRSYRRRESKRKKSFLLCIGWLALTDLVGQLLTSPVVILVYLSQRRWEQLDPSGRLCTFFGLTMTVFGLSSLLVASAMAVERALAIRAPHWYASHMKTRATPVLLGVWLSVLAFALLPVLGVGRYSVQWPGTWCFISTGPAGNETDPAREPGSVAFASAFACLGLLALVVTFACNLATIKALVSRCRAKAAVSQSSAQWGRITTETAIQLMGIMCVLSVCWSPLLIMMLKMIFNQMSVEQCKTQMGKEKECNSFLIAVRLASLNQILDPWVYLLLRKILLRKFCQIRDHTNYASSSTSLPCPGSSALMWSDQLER

Assay [3] concerns the target Prostaglandin F2-alpha receptor (Mus musculus, UniProt P43117).
The target of assay [4] is T3, Prostaglandin E2 receptor EP1 subtype (Mus musculus, UniProt P35375).
T3 sequence (P35375 whole entry): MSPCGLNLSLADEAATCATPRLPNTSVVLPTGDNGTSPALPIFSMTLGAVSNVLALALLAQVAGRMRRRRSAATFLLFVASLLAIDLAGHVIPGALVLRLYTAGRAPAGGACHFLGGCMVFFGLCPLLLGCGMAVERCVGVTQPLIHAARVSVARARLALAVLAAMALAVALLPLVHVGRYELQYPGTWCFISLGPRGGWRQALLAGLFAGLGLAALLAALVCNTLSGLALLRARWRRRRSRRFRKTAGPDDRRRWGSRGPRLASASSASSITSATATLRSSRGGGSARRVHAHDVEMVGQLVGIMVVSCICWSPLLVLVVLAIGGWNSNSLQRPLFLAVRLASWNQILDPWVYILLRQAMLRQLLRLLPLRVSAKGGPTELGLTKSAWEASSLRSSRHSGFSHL

Assay [5] addresses Prostaglandin E2 receptor EP4 subtype (Mus musculus, UniProt P32240).

Prostaglandin E2 receptor EP4 subtype, sequence (P32240 whole entry): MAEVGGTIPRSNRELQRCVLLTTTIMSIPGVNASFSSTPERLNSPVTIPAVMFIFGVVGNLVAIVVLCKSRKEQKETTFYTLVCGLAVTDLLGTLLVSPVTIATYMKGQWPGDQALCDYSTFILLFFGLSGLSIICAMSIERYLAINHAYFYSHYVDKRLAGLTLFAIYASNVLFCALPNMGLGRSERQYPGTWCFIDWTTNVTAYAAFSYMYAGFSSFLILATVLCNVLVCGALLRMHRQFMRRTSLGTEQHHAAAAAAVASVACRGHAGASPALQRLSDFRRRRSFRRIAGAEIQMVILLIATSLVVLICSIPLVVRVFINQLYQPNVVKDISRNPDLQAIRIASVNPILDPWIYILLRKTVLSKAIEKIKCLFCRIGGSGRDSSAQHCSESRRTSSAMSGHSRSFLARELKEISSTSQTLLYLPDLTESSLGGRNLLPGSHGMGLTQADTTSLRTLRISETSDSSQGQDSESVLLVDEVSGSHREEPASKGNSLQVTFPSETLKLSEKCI
Prostaglandin E2 receptor EP2 subtype, sequence (Q62053 whole entry): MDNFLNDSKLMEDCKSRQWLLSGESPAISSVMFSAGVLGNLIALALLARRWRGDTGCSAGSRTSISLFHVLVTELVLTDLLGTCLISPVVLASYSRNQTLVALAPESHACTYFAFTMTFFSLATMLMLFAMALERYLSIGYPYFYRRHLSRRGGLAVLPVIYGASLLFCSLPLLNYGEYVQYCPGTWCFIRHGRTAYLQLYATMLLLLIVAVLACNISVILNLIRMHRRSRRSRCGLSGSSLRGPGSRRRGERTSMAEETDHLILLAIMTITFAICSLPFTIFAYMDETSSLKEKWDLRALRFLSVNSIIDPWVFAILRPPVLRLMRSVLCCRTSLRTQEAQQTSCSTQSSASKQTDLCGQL
Prostacyclin receptor, sequence (P43252 whole entry): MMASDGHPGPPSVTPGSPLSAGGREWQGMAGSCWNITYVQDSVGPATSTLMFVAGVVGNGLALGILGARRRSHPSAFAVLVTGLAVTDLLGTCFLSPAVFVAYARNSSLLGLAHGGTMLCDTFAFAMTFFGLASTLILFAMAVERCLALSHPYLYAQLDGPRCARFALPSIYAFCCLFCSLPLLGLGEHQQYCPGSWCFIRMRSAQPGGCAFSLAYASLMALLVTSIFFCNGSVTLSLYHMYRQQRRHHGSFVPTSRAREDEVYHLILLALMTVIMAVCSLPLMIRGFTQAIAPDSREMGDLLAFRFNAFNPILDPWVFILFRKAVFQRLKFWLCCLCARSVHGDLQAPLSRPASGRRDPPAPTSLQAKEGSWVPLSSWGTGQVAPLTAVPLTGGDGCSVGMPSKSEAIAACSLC
Prostaglandin F2-alpha receptor, sequence (P43117 whole entry): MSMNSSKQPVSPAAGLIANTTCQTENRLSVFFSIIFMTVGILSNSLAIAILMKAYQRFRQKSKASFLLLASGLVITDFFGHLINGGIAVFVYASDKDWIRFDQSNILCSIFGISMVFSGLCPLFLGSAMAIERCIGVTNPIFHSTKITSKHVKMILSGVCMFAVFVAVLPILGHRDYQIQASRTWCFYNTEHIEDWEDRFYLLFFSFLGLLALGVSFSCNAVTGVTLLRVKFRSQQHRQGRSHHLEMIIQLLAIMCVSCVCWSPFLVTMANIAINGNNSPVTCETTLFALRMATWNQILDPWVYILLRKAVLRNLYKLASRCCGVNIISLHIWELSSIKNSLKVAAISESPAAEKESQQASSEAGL

The term Ki denotes the dissociation constant of the complex between target and ligand, obtained from inhibition or displacement. Lower therefore signals higher affinity. For the molecule `O=C(O)CC/C=C\CC[C@@H]1[C@@H](N2CCCCC2)[C@@H](O)C[C@@H]1OCc1ccc(-c2ccccc2)cc1` [GR 32191], the Ki at Thromboxane A2 receptor stood at 12 nM.
As to `CCC#CCC(C)C(O)C#CC1C(O)CC2CC(=CCOCC(=O)O)CC21` (configuration not stated) [CAS_94079-80-8], the Ki came to 1300 nM in assay [1], 10 nM at Prostacyclin receptor and 170 nM in assay [2].
For the molecule `CCCCCC(O)CC=C1C(=O)C=CC1CC=CCCCC(=O)O` (configuration not stated) [CAS_41598-07-6], the Ki was found to be 47 nM in assay [3] and 280 nM in assay [2].
As to `O=C(O)CCC/C=C\C[C@H]1[C@@H]2CCC(O2)[C@@H]1/C=C/[C@@H](O)COc1ccc(I)cc1` [I-BOP], the Ki in assay [1] was 220 nM; in assay [3], 100 nM; in assay [2], 100 nM; on Thromboxane A2 receptor, 0.56 nM.
As to `CCCCCC(O)C=CC1CCC(=O)C1CCCCCCC(=O)O` (configuration not stated) [PGE1,11-DEOXY], the Ki was 45 nM in assay [1]; 1000 nM at Prostacyclin receptor; 1.5 nM in assay [2]; 600 nM in assay [4]; 23 nM in assay [5].
Take `O=C(CCC=CCCC1C(=O)CC(O)C1OCC(O)COc1ccccc1)Oc1ccc(NC(=O)c2ccccc2)cc1` (configuration not stated) [NSC_5311224]: the results for the Ki in assay [2] and in assay [5] were 1.9 nM and 480 nM, respectively.
In assay [1], `CCCC1([C@@H](O)C/C=C/C2[C@H](O)CC(=O)[C@@H]2CCCCCCC(=O)OC)CCC1` (some centres not stated) [Butaprost (Methyl Ester)] returned a Ki of 110 nM.
Consider `O=C(O)CCCC=CCC1C(O)CC(O)C1C=CC(O)COc1cccc(C(F)(F)F)c1` (configuration not stated) [CAS_40666-16-8], for which the Ki in assay [3] amounted to 3.8 nM.
For the molecule `CCCCCC(O)c1ccc(C2CCC(=O)C2CCCCCCC(=O)O)cc1` (configuration not stated) [CAS_132836], the Ki in assay [1] amounted to 240 nM; in assay [2] it was 82 nM.
Take `CCCCCC(O)C=CC1C(O)CC2C=C(CCCCC(=O)O)CC21` (configuration not stated) [NSC_5311244]: the Ki was found to be 1000 nM in assay [1], 15 nM on Prostacyclin receptor and 31 nM in assay [2].
With `O=C(O)CCC/C=C\C[C@H]1C(=O)C[C@@H](O)[C@@H]1/C=C/[C@@H](O)CCc1ccccc1` [17-PHENYL TRINOR PROSTAGLANDIN E2], the Ki was determined as 60 nM in assay [3], 3.7 nM in assay [2], 14 nM in assay [4] and 1000 nM in assay [5].
Take `CCCCC[C@H](O)/C=C/[C@H]1[C@H](O)CC(=O)[C@@H]1C/C=C\CCCC(=O)O` [DINOPROSTONE]: the Ki in assay [1] is 12 nM; in assay [3], 100 nM; in assay [2], 0.85 nM; in assay [4], 20 nM.
In assay [3], `C[C@H](O)CCCC(O)C=CC1C(O)CC(=O)C1CC=CCCCC(=O)O` (some centres not stated) [PGE2,19R(OH)] yielded a Ki of 1000 nM.
As for `O=C(O)CCCCCCC1C(=O)CC(O)C1C=CC(O)CCCCCO` (configuration not stated) [PGE1,1-OH], the Ki in assay [2] worked out at 330 nM; in assay [5], 190 nM.
With `CC(C)Oc1ccc2c(=O)c3cc(C(=O)O)ccc3oc2c1` [CAS_33458-93-4], the Ki in assay [1] amounted to 350 nM.
Consider `CCCCC[C@H](O)/C=C/C1[C@@H](C/C=C\CCCC(=O)O)[C@H]2CO[C@@H]1C2` (some centres not stated) [U46619], for which the Ki in assay [3] turned out to be 1000 nM; at Thromboxane A2 receptor, 67 nM.
Turning to `O=C(O)CCCCCCc1c(O)[nH]c(=O)n1CCC(O)C1CCCCC1` (configuration not stated) [NSC_3080928], the affinity in assay [3], expressed as Ki, was 1700 nM.
Consider `CC#CCC(C)C(O)C=CC1C(O)CC2Oc3c(CCCC(=O)O)cccc3C21` (configuration not stated) [NSC_2352], for which the results for the Ki (on Prostacyclin receptor; in assay [2]) were 16 nM and 110 nM, respectively.
Regarding `CCCCC(C)(O)CC=CC1C(O)CC(=O)C1CCCCCCC(=O)OC` (configuration not stated) [MISOPROSTOL (Methyl Ester)], the Ki was found to be 250 nM in assay [1], 67 nM in assay [2], 120 nM in assay [4] and 67 nM in assay [5].
Regarding `CC#CCC(C)[C@H](O)/C=C/[C@@H]1[C@H]2C/C(=C/CCCC(=O)O)C[C@H]2C[C@H]1O` (some centres not stated), the Ki is 1600 nM in assay [1]; 11 nM at Prostacyclin receptor; 22 nM in assay [2]; 21 nM in assay [4]; 2300 nM in assay [5].
Take `O=C(O)CCCCCCC1C(=O)CCC1C=CC(O)COc1ccccc1` (configuration not stated) [CAS_80558-61-8]: the Ki in assay [3] worked out at 124 nM; in assay [2], 0.68 nM; in assay [4], 120 nM; in assay [5] it was 500 nM; at Thromboxane A2 receptor, 1300 nM.
Take `O=C(O)CCC/C=C\C[C@@H]1C(NS(=O)(=O)c2ccccc2)C2CC[C@@H]1C2` (single isomer, unassigned; (+)) [S 145]: the inhibition constant Ki at Thromboxane A2 receptor turned out to be 0.68 nM. This counts as sub-nanomolar.
In the case of `CCCCC[C@H](O)/C=C/[C@@H]1[C@H]2C/C(=C\CCCC(=O)O)C[C@H]2C[C@H]1O`, the Ki turned out to be 1600 nM in assay [1]; 1200 nM in assay [3]; 110 nM on Prostacyclin receptor; 31 nM in assay [2]; 2300 nM in assay [5].
Turning to `CC1=C(CCON=C(c2ccccc2)c2cccnc2)c2cccc(OCC(=O)O)c2CC1` [NSC_128021], the Ki came out at 47 nM on Prostacyclin receptor and 740 nM in assay [2].
On to `CCCCC[C@H](O)/C=C/C1C[C@H]2C[C@H](S2)[C@@H]1C/C=C\CCCC(=O)O` (some centres not stated) [STA2], for which the Ki in assay [1] came to 220 nM; in assay [3] it was 97 nM; in assay [2], 23 nM; in assay [5], 350 nM; on Thromboxane A2 receptor, 14 nM.
For the molecule `CCCCC[C@H](O)/C=C/C1[C@H](O)C[C@H](O)[C@@H]1C/C=C\CCCC(=O)O` (stereo partly drawn) [(Z)-7-[(1R,3R,5S)-3,5-Dihydroxy-2-((E)-(S)-3-hydroxy-oct-1-enyl)-cyclopentyl]-hept-5-enoic acid], the figures for the Ki in assay [2] and in assay [4] were 75 nM and 1300 nM, respectively.
Turning to `CCCCC[C@@H](O)/C=C/[C@H]1[C@H](O)CC(=O)[C@@H]1CCCCCCC(=O)O`, the Ki in assay [1] is 10 nM; on Prostacyclin receptor, 33 nM; in assay [2] it was 1.1 nM; in assay [4], 36 nM; in assay [5], 2.1 nM.
On to `CCCCC(C)(C)C(O)C=CC1C(O)CC(=O)C1CC=CCCCC(=O)O` (configuration not stated), for which the Ki in assay [1] was 17 nM; in assay [3] it was 350 nM; in assay [2] it was 1.9 nM; in assay [5], 43 nM.
`CS(=O)(=O)NC(=O)CCCC=CCC1C(=O)CC(O)C1C=CC(O)COc1ccccc1` (configuration not stated) [CAS_60325-46-4]: the figures for the Ki in assay [3], in assay [2] and in assay [4] were 580 nM, 0.6 nM and 21 nM, respectively.
